Results on 3 compounds are retold here after patent publication US4562204A, “Trans-Δ^2 -prostaglandin D derivatives, process for their preparation and compositions containing them” (Ono Pharmaceutical Co., Ltd., priority 1982, dated 1985).

For assay [1], the system named is cells originated from human mouth tumour (KB-cells). Nature of the assay: Inhibition of the proliferation of cells originated from human mouth tumour (KB-cells), Trypan Blue staining. It counts as cell-based. As to conditions: 96 h, 37° C., 4 days, relative to control (0.1% ethanol), read-out: Percent Inhibition of proliferation, KB-cells; for inhibition at 1 µg/mL: 1 μg/ml; for inhibition at 5 µg/mL: 5 μg/ml. On the procedure:
Test on the Inhibition of the Proliferation of Cells Originated from Human Mouth Tumour (KB-cells) Experimental method
The test on the inhibition of the proliferation of cells originated from human mouth tumour was conducted by a well known method. The cells originated from human mouth tumour (KB-cells) were added to an Eagle's MEM culture solution containing 10% bovine fetal serum, the number of cells in the culture solution was adjusted to 1×10^5 cells/ml, a solution in ethanol of the compound under test was added to give a concentration of 5 μg/ml or 1 μg/ml, and the mixture was subjected to stationary culture at 37° C. for 4 days. As a control, a culture solution containing 0.1% of ethanol was similarly cultured. The culture solutions were stained by the Trypan Blue staining method and the surviving cell number was measured to determine the degree of inhibition relative to the control.

Assay [2] relates to human myelogenous leukemic cells (HL-60). Nature of the assay: Inhibition of the proliferation of human myelogenous leukemic cells (HL-60), Trypan Blue staining. It counts as cell-based. Particulars: HL-60, 96 h, 37° C., 4 days, relative to control (0.1% ethanol), read-out: Percent Inhibition of proliferation, HL-60 cells; for inhibition at 1 µg/mL: 1 μg/ml; for inhibition at 5 µg/mL: 5 μg/ml. On the procedure: Test on the Inhibition of the Proliferation of Human Myelogenous Leukemic Cells (HL-60) Experimental method
The test on the inhibition of the proliferation of human myelogenous leukemic cells was conducted by a well known method. The human myelogenous leukemic cells (HL-60) were added to an RPMI culture solution containing 10% bovine fetal serum, the number of cells in the culture solution was adjusted to 1×10^5 cells/ml, a solution in ethanol of the compound under test was added to give a concentration of 5 μg/ml or 1 μg/ml, and the mixture was subjected to stationary culture at 37° C. for 4 days. As a control, a culture solution containing 0.1% of ethanol was similarly cultured. The culture solutions were stained by the Trypan Blue staining method and the surviving cell number was measured to determine the degree of inhibition relative to the control.

Regarding `CCCCCC=CC=C1C(=O)C=C[C@@H]1C/C=C\C/C=C/C(=O)O` [(2E,5Z,9Z,14EZ)-11-oxoprosta-2,5,9,12,14-pentaenoic acid], in assay [1], the inhibition at 1 µg/mL came out at 0% and the inhibition at 5 µg/mL worked out at 100%. Also, in assay [2], the inhibition at 1 µg/mL was found to be 4.8% and the inhibition at 5 µg/mL came out at 98.3%.

For `CCCCC[C@H](O)/C=C/[C@H]1C(=O)C[C@H](O)[C@@H]1C/C=C\C/C=C/C(=O)O` [Trans-Δ^2 -PGD2, (2E,5Z,13E)-(9α,15S)-9,15-dihydroxy-11-oxoprosta-2,5,13-trienoic acid], in assay [1], the inhibition at 1 µg/mL worked out at 2.1% and the inhibition at 5 µg/mL came out at 17.9%. In assay [2], the inhibition at 1 µg/mL was found to be 0% and the inhibition at 5 µg/mL stood at 19.4%.

Turning to `CCCCC[C@H](O)/C=C/[C@H]1C(=O)C=C[C@@H]1C/C=C\C/C=C/C(=O)O` [Trans-Δ^2-9-deoxy-Δ^9 -PGD2, (2E,5Z,9Z,13E)-(15S)-11-oxo-15-hydroxyprosta-2,5,9,13-tetraenoic acid], in assay [1], the inhibition at 1 µg/mL is 9.7% and the inhibition at 5 µg/mL came out at 98.5%. Moreover, in assay [2], the inhibition at 1 µg/mL came out at 1.4% and the inhibition at 5 µg/mL is 99%.
